Assay results taken from paper PMC12432378 (Cell Reports Medicine, 2025).
Positions of bridges follow the written chain, without caps; N, C: chain ends. Non-standard residues stand in square brackets, D forms with d. Residues, ends and D or L forms follow the SMILES beside them. S5 = C=CCCC[C@](C)(N)C(=O)O

Tests used:
MjHKU4r-S = type: cell-based, MjHKU4r-CoV-1; details: for IC50: read-out: IC50 against MjHKU4r-S-mediated cell-cell fusion
MjHKU4r-CoV-1 PsV = details: for IC50: 48 h
authentic MjHKU4r-CoV-1 [1] = type: cell-based
authentic MjHKU4r-CoV-1 [2] = details: 72 h
[3] = test system: pseudotyped SARS-CoV-2 (KP.2); details: pseudotyped (KP.2, 48 h)
[4] = test system: pseudotyped SARS-CoV-2 (Delta); details: pseudotyped (Delta, 48 h)
HCoV-OC43 = test system: HCoV-OC43; set-up: species or system newborn ICR mice; details: mouse, in vivo
MERS-CoV PsV = details: 48 h

| Structure (SMILES) | Inhibition of MjHKU4r-S-mediated cell-cell fusion at fixed concentration (MjHKU4r-S) | IC50 (MjHKU4r-S) [nM] | IC50 (MjHKU4r-CoV-1 PsV) [nM] | Blockage of MjHKU4r-CoV-1 N protein expression (immunofluorescence) (authentic MjHKU4r-CoV-1 [1]) | IC50 (authentic MjHKU4r-CoV-1 [2]) [nM] | IC50 [3] [nM] | IC50 [4] [nM] | IC50 (authentic HCoV-OC43) [nM] | Survival rate (HCoV-OC43) [%] | IC50 (MERS-CoV PsV) [nM] | Improvement in inhibition of pseudotyped MjHKU4r-CoV-1 infection compared to original MjHKU4r-HR2P (MjHKU4r-CoV-1 PsV) [fold] |
| --- | --- | --- | --- | --- | --- | --- | --- | --- | --- | --- | --- |
| CC[C@H](C)[C@H](NC(=O)[C@H](C)NC(=O)[C@H](CCSC)NC(=O)[C@H](CCC(=O)O)NC(=O)[C@H](CC(=O)O)NC(=O)[C@H](CO)NC(=O)[C@H](CC(C)C)NC(=O)[C@H](CC(=O)O)NC(=O)[C@H](CC(C)C)NC(=O)[C@H](CC(C)C)NC(=O)[C@@H](NC(=O)[C@@H](NC(=O)[C@H](CC(N)=O)NC(=O)[C@@H](NC(=O)[C@H](CCCCN)NC(=O)[C@H](CO)NC(=O)[C@@H](NC(=O)[C@H](CCC(=O)O)NC(C)=O)[C@@H](C)CC)[C@@H](C)CC)[C@@H](C)O)[C@@H](C)O)C(=O)N[C@@H](CC(C)C)C(=O)N[C@@H](CCC(N)=O)C(=O)N[C@@H](CCC(=O)O)C(=O)N[C@H](C(=O)N[C@H](C(=O)N[C@@H](CCCCN)C(=O)N[C@@H](CCC(N)=O)C(=O)N[C@@H](CC(C)C)C(=O)N[C@@H](CC(N)=O)C(=O)N[C@@H](CC(=O)O)C(=O)N[C@@H](CO)C(=O)N[C@@H](Cc1ccc(O)cc1)C(=O)N[C@H](C(=O)N[C@@H](CC(=O)O)C(=O)N[C@@H](CC(C)C)C(=O)N[C@@H](CCCCN)C(=O)N[C@@H](CCC(=O)O)C(=O)N[C@@H](CC(C)C)C(N)=O)[C@@H](C)CC)C(C)C)C(C)C [MjHKU4r-HR2P] | completely inhibited | 37 | 62 | near-complete blockage | 26 |  |  |  |  |  |  |
| CSCC[C@H](NC(=O)[C@H](C)NC(=O)CNC(=O)[C@H](CC(C)C)NC(=O)[C@H](C)NC(=O)[C@H](CCC(N)=O)NC(=O)[C@H](CC(N)=O)NC(=O)[C@H](Cc1ccccc1)NC(=O)[C@H](CCCCN)NC(=O)[C@H](CC(N)=O)NC(=O)[C@H](C)NC(C)=O)C(=O)N[C@@H](CCC(N)=O)C(=O)N[C@H](C(=O)NCC(=O)N[C@@H](Cc1ccccc1)C(=O)N[C@H](C(=O)N[C@H](C(=O)N[C@@H](CO)C(=O)N[C@@H](CC(N)=O)C(=O)N[C@@H](CC(C)C)C(=O)N[C@@H](C)C(=O)N[C@@H](Cc1ccccc1)C(=O)N[C@@H](CO)C(=O)N[C@@H](CCCCN)C(=O)N[C@H](C(=O)N[C@@H](CCC(N)=O)C(=O)N[C@@H](CC(=O)O)C(=O)N[C@@H](C)C(=O)N[C@H](C(=O)N[C@@H](CC(N)=O)C(=O)N[C@@H](C)C(=O)N[C@@H](CC(N)=O)C(=O)N[C@@H](C)C(=O)N[C@@H](CC(N)=O)C(=O)N[C@@H](C)C(=O)N[C@@H](CC(C)C)C(=O)N[C@@H](CO)C(=O)N[C@@H](CCCCN)C(=O)N[C@@H](CC(C)C)C(=O)N[C@@H](C)C(=O)N[C@@H](CO)C(=O)N[C@@H](CCC(=O)O)C(N)=O)C(C)C)C(C)C)[C@@H](C)O)[C@@H](C)O)[C@@H](C)O [MjHKU4r-HR1P] |  |  | > 10000 |  | > 5000 |  |  |  |  |  |  |
| CC[C@H](C)[C@H](NC(=O)[C@H](C)NC(=O)[C@H](CCSC)NC(=O)[C@H](CCC(=O)O)NC(=O)[C@H](CC(=O)O)NC(=O)[C@H](CO)NC(=O)[C@H](CC(C)C)NC(=O)[C@H](CC(=O)O)NC(=O)[C@H](CC(C)C)NC(=O)[C@H](CC(C)C)NC(=O)[C@@H](NC(=O)[C@@H](NC(=O)[C@H](CC(N)=O)NC(=O)[C@@H](NC(=O)[C@H](CCCCN)NC(=O)[C@H](CO)NC(=O)[C@@H](NC(=O)[C@H](CCC(=O)O)NC(C)=O)[C@@H](C)CC)[C@@H](C)CC)C(C)C)[C@@H](C)O)C(=O)N[C@@H](CC(C)C)C(=O)N[C@@H](CC(C)C)C(=O)N[C@@]1(C)CCCC=CCCC[C@@](C)(C(=O)N[C@@H](CC(C)C)C(=O)N[C@@H](CC(N)=O)C(=O)N[C@@H](CC(=O)O)C(=O)N[C@@H](CO)C(=O)N[C@@H](Cc2ccc(O)cc2)C(=O)N[C@H](C(=O)N[C@@H](CC(=O)O)C(=O)N[C@@H](CC(C)C)C(=O)N[C@@H](CCCCN)C(=O)N[C@@H](CCC(=O)O)C(=O)N[C@@H](CC(C)C)C(N)=O)[C@@H](C)CC)NC(=O)[C@H](CCCCN)NC(=O)[C@H]([C@@H](C)CC)NC(=O)[C@H](C)NC1=O [MjHKU4r-HR2P10] (Ac-EISKINVTLLDLSDEMAILL[S5]AIK[S5]LNDSYIDLKEL-NH2; staple 21-25) |  |  |  |  |  | 85.9 | 115 | 480 | 66.7 | 37.2 |  |
| CC[C@H](C)[C@H](NC(=O)[C@H](C)NC(=O)[C@H](CCSC)NC(=O)[C@H](CCC(=O)O)NC(=O)[C@H](CC(=O)O)NC(=O)[C@H](CO)NC(=O)[C@H](CC(C)C)NC(=O)[C@H](CC(=O)O)NC(=O)[C@H](CC(C)C)NC(=O)[C@H](CC(C)C)NC(=O)[C@@H](NC(=O)[C@@H](NC(=O)[C@H](CC(N)=O)NC(=O)[C@@H](NC(=O)[C@H](CCCCN)NC(=O)[C@H](CO)NC(=O)[C@@H](NC(=O)[C@H](CCC(=O)O)NC(C)=O)[C@@H](C)CC)[C@@H](C)CC)C(C)C)[C@@H](C)O)C(=O)N[C@@H](CC(C)C)C(=O)N[C@@H](CC(C)C)C(=O)N[C@@H](CCC(=O)O)C(=O)N[C@@H](C)C(=O)N[C@H](C(=O)N[C@@H](CCCCN)C(=O)N[C@@H](CCC(N)=O)C(=O)N[C@@H](CC(C)C)C(=O)N[C@@H](CC(N)=O)C(=O)N[C@@H](CC(=O)O)C(=O)N[C@@H](CO)C(=O)N[C@@H](Cc1ccc(O)cc1)C(=O)N[C@H](C(=O)N[C@@H](CC(=O)O)C(=O)N[C@@H](CC(C)C)C(=O)N[C@@H](CCCCN)C(=O)N[C@@H](CCC(=O)O)C(=O)N[C@@H](CC(C)C)C(N)=O)[C@@H](C)CC)[C@@H](C)CC [MjHKU4r-HR2P9] |  | 10.3 | 26 |  |  | 460 | 408 | 1020 |  | 114 | 2.9 |
